{"source": "paper PMC8786932", "about": "“Bicyclic azetidines target acute and chronic stages of Toxoplasma gondii by inhibiting parasite phenylalanyl t-RNA synthetase” (Nature Communications, 2022)", "key": {"C. parvum": {"tested_on": "C. parvum", "details": "C. parvum mouse model; cited from earlier work"}, "[1]": {"tested_on": "HFF (primary human foreskin fibroblast)", "experiment": "in vitro", "format": "cell-based", "details": "EC50 host cell/EC50 T. gondii", "description": "For the toxicity screen, compounds were tested in 96-well plates using all the wells as no edge affect was observed. Compounds were diluted to 40 μM (2x concentration in 10% DMEM, 0.4% DMSO) before step-wise, 3-fold dilution in 10% DMEM to create 10-dose series (20 μM to 0.001 μM). Host cells were plated in black, μ-Clear 96-well plates (Greiner Bio-One). We compared several lineages including HepG2 (human hepatocellular carcinoma (ATCC-HB-8065)), THP-1 (human monocytic tumor line), SH-SY5Y (human neuroblastoma (ATCC CRL-2266)), A549 (human lung carcinoma (ATCC CRM-CCL-185)) and Caco-2 (human intestinal adenocarcinoma (ATCC HTB-37)) and HFF (primary human foreskin fibroblast) obtained from the laboratory of John Boothroyd at Stanford University. Cells were maintained in culture media according to the formulations recommended by ATCC. Cells were plated at a density (ranging from of 5 × 10^3 to 2 × 10^4 cells/well (100 μL vol)) resulting in sub-confluent monolayers to allow expansion during the 2 day growth assay. THP-1 cells were treated with 10 ng/ml phorbol 12-myristate 13-acetate (PMA) for 24 h to differentiate into macrophages before compound addition. For all other cells, compounds were added at 6 h post seeding to host cells containing plates (200 μL final volume, 0.2% DMSO) and incubated in culture medium at 37 °C supplemented with 5% CO2. At 44 h post compound addition (50 h total growth time), culture media was aspirated and replaced with Live Imaging solution (ThermoFisher) supplemented with 10 μg/mL Hoeschst 33342 (Sigma) for 20 min at 37 °C. […] Alternatively, plates fixed with 4% formaldehyde for 10 min and stained with 10 μg/mL Hoeschst 33342 (Sigma) for 20 min and imaged using a Cytation 3 multi-mode imager (DAPI, 10x objective, 4 images/well) and nuclei quantified using the Gen5 imager software (v3.08). Assays were repeated with two technical replicates within each of two independent biological replicates.\nAll statistical analyses were conducted using Prism 9 (GraphPad Software, Inc.). Dose–response inhibition curves for parasite and host cell toxicity screens (EC50 values) were generated using (Log(inhibitor) vs. normalized response—Variable slope) function. […] For multiple comparisons, two-way ANOVA analysis function using either Sidák’s multiple comparisons test or Dunnett’s multiple comparisons test was applied as indicated."}, "[2]": {"tested_on": "T. gondii RHΔΔ TgPheRS[M484I] [V262A] double mutant", "experiment": "Tachyzoite lytic assay, M484I_V262A double mutant", "format": "cell-based, Toxoplasma gondii", "details": "for EC50: Toxoplasma gondii", "description": "In vitro cultures of HFF cells containing mature vacuoles were scraped, passaged through 23 g blunt end needles, and filtered using 3 micron filters. Purified parasites were resuspended in 350 μL of cytomix plus[49] and combined in a BTX 4 mm gap cuvette with 30 μL of PCR amplified templates corresponding to mutations of interest and 10 μg of pSAG1:Cas9-GFP U6:sgTgPheRS^[mut] (in 20 μL, 400 μL total volume, see Supplementary Data 1 for sgRNA sequences) prior to electroporation using a BTX ETM 830 electroporator. Amplified templates for TgPheRS mutations were generated from gBlocks (Integrated DNA Technologies, Coralville, IA, USA) that contain a BclI restriction site that replaces the PAM sequence to protect the repair template from being cut by Cas9. At 16 h post-transfection, transgenic parasites expressing pSAG1:Cas9-GFP were sorted on a Sony SH800 FACS sorter directly into 96-well plates. Single clones containing TgPheRS^[mut] were identified by amplifying a ~500 bp PCR fragment around introduced mutation followed by digestion using BclI (New England Biolabs) BclI sensitive clones were expanded and the locus was Sanger sequenced to verify incorporation of each independent mutation. To generate firefly luciferase (FLuc) expressing strains, freshly harvested parasites were combined with 20 μg of pTUB-FLUC DHFR flox plasmid and 10 μg of pSAG1:Cas9-GFP U6:sgUPRT[50] (in 50 μL cytomix plus) and transformed by electroporation as described above. […]\nParasite growth on HFF monolayers was monitored using a 96-well plate-based lytic assay modified from a previously described protocol. […] Plates were rinsed with water, air dried, and absorption quantified on the Cytation 3 multi-mode imager at 570 nm wavelength. % parasite growth was calculated as 100−[(OD value for infected cultures at each concentration of compound/average OD value for no compound and no parasite infection) × 100]. EC50 values were calculated based on the mean of three biological replicates with each replicate containing two technical replicates."}, "[3]": {"tested_on": "T. gondii ME49-FLuc chronic infection", "format": "in vivo, Ifngr1-/- mice", "details": "for Days (survival time of single mouse) / Survival event flag of single mouse (1 or 0): Fig 6C", "description": "(§1) Ifngr1^−/− (B6.129S7-Ifngr1 ^tm1Agt /J) and CBA/J mice were purchased from Jackson Laboratory and bred locally at Washington University. Animal studies were conducted according to the U.S. Public Health Service policy on human care and use of laboratory animals. Animals were maintained in facilities approved by the Association for Assessment and Accreditation of Laboratory Animal Care. Studies were approved by Division of Comparative Medicine, Washington University. […] Animals were maintained on a 12:12 light cycle, room temperature maintained at 70℉ ± 2℉, and room humidity maintained at 50% ± 20%.\n(§2) Testing of compounds to prevent reactivation of chronic infection was […] to test the efficacy of PheRS inhibitors against chronic infection. In both cases, male and female C57BL/6 Ifngr1^−/− mice were infected by oral gavage with 5 cysts of the ME49-Fluc strain isolated from chronically infected CBA/J mice. […] Animals were monitored for survival and weight loss for 30 days post-treatment."}, "[4]": {"tested_on": "T. gondii ME49-FLuc tissue cysts", "format": "in vivo, Ifngr1-/- mice", "description": "as §1, §2"}}, "note": "Several values for one entry are separate records, joined by “and”; a condition that tells them apart may be missing. Identical values can stand only once. Like-named read-outs stand apart in the source and are kept apart here.", "data": [{"smiles": "COc1ccc(NC(=O)N2CCCCN3[C@H](CO)[C@H](c4ccc(C#Cc5ccccc5)cc4)[C@@H]3C2)cc1", "note": "[BRD3444]", "values": [{"measurement": "reduction of oocyst shedding", "setting": "C. parvum", "result": 96, "unit": "%"}]}, {"smiles": "COc1ccc(NC(=O)N2CCCCN3[C@H](CN(C)S(C)(=O)=O)[C@H](c4ccc(C#Cc5ccccc5)cc4)[C@@H]3C2)cc1", "note": "[BRD8494]", "values": [{"measurement": "HFF fold selectivity", "setting": "[1]", "result": 571.4, "unit": "fold"}]}, {"smiles": "COc1ccc(NC(=O)N2CCCCN3[C@H](CN(C)C)[C@H](c4ccc(C#Cc5ccccc5)cc4)[C@@H]3C2)cc1", "note": "[BRD7929]", "values": [{"measurement": "shift of EC50, double mutant", "setting": "[2]; M484I and V262A double mutant", "result": "only shifted the EC50 slightly more than every single mutation"}, {"measurement": "EC50", "setting": "[2]; 72 h, read-out: EC50, M484I_V262A", "result": 265, "unit": "nM"}, {"measurement": "EC50", "setting": "[2]; Table S4, V262A-M484I, read-out: EC50 (growth restriction)", "result": 234, "unit": "nM"}, {"measurement": "onset of death, reactivation model", "setting": "[3]; 10 mg/kg p.o. QD, 16 days", "result": "delayed onset of death"}, {"measurement": "survival vs vehicle, reactivation model", "setting": "[3]; 10 mg/kg p.o. once a day, 16 days, P = 0.0003, Mantel-Cox", "result": "survived significantly longer"}, {"measurement": "Days (survival of individual mice)", "setting": "[3]; 10 mg/kg, c3: 1 = death, 0 = survivor", "result": "10 days and 12 days and 24 days and 20 days and 30 days and 23 days and 22 days"}, {"measurement": "Days (survival time of single mouse)", "setting": "[3]; 10d-10 mg / kg", "result": "13 days and 29 days and 14 days and 17 days and 19 days and 16 days"}, {"measurement": "Survival event flag of single mouse (1 or 0)", "setting": "[3]; 10d-10 mg / kg", "result": "1 and 0"}, {"measurement": "Days (survival time of single mouse)", "setting": "[3]; 20d - 10 mg / kg, 10 mg/kg", "result": "29 days and 17 days and 15 days and 20 days and 19 days and 22 days"}, {"measurement": "Survival event flag of single mouse (1 or 0)", "setting": "[3]; 20d - 10 mg / kg, 10 mg/kg", "result": "0 and 1"}, {"measurement": "survival vs sulfadiazine, oral challenge model", "setting": "[4]; 10 mg/kg p.o. 20 days, P = 0.0487, Mantel-Cox", "result": "survived significantly longer than sulfadiazine mice"}, {"measurement": "mean survival", "setting": "[4]; 10 mg/kg p.o. QD for 10 days from 48 h post-challenge", "result": 16.5, "unit": "days"}, {"measurement": "mean survival", "setting": "[4]; 10 mg/kg p.o. QD for 20 days from 48 h post-challenge", "result": 21, "unit": "days"}, {"measurement": "mice in which death was prevented", "setting": "[4]; 10 mg/kg p.o. QD, 20 days", "result": "3 of 8"}, {"measurement": "animals cured by treatment, overall", "setting": "[4]; 10 day and 20 day cohorts together", "result": "4 of 16"}]}]}
